Data as given in patent publication US8957071B2, “Treatment of vascular, autoimmune and inflammatory diseases using low dosages of IMPDH inhibitors” (Aspreva Pharmaceuticals S.A., priority 2005, dated 2015).

Assays:
[1] = Serum mycophenolic acid levels in Ldlr−/− mice by commercial assay; format: in vivo
Method: (§1) Diet W will be formulated with CellCept® incorporated directly into the chow, at concentrations of 0.04%, 0.08% or 0.26% mycophenolate mofetil by weight. When administered in this way, the mice will be expected to consume 15 mg/kg/day (“low dose”), 30 mg/kg/day (“low dose”), or 100 mg/kg/day (“high-dose”) of the drug. Mice will be sacrificed 12 weeks after feeding on the study diet, and the endpoints determined.
No MPA was detected in the serum of control mice (data not shown).

male Ldlr−/− mice [2] = assay: Atherosclerosis in Ldlr−/− (LDLRKO) mice on Western-type diet: percentage of aortic sinus occluded by plaque; format: in vivo; settings: 12 weeks; for reduction of atherosclerosis (AS): male Ldlr−/− mice; for percentage of aortic sinus occluded by plaque: control 16%
Text: (§2) This example illustrates the effect of low-dose MMF on mice lacking the low-density lipoprotein receptor B6.129S7-Ldlrtm1Her/J (hereinafter referred to as LDLRKO mice) obtained from Jackson Labs. When placed on a high-fat, high-cholesterol “Western-type” diet, these mice develop severe atherosclerosis (Ishibashi et al., 1994, J Clin Invest. 93(5):1885-93).
as §1
The primary endpoint will be evaluated using histological analysis of plaque area at the aortic root. The total lesion area in oil red O-stained cryostat sections of the aortic root is quantified using a Leica image analysis system. Mean lesion area (as a percentage of aortic cross-sectional area) is calculated from 10 oil red O-stained sections, beginning at the appearance of the tricuspid valves.
(§3) Plaque composition is analysed as a secondary endpoint using oil red O staining (for lipid content—see above), Movat's pentachrome staining (for lesion complexity including extracellular matrix and glycosaminoglycans), and haematoxylin and eosin (for macrophage content). The average atherosclerotic area is compared between the groups using the two-way ANOVA test. Additional secondary endpoints will be plasma levels of total cholesterol, HDL cholesterol, LDL cholesterol, triglycerides, and glucose, as well as en face visualization of the thoracic and abdominal aortas stained with oil red O.
Low-dose therapy (15 mg/kg/day, a dosage equivalent to approximately 1 gram per day in a 70 kg human) reduced AS by 31% (from 16% to 11% of the sinus) whereas high-dose therapy reduced AS by 61% (from 16% to 6.2%). The response was dose-dependent. Quantification was performed by a single, trained observer blinded to treatment group.

male Ldlr−/− mice [3] = assay: Serum lipids (triglycerides, phospholipids, HDL) in Ldlr−/− mice on Western-type diet; format: in vivo; settings: for serum phospholipid (PPL) levels: control 1078+91 mg/dL; for serum triglyceride (Tgs) levels: control 1198+137 mg/dL
Text: as §2, §1, §3
The response was dose-dependent. Quantification was performed by a single, trained observer blinded to treatment group. Mouse groups are the same as for FIG. 1.
Importantly, levels of serum HDL-cholesterol are not lowered by MMF treatment. Quantification was performed by a single, trained observer blinded to treatment group. Mouse groups are the same as for FIG. 1.

[4] = system: male New Zealand White (NZW) rabbits; assay: High-cholesterol New Zealand White rabbit model of atherogenesis (Example 2); format: in vivo; settings: 1 or 5 mg/kg by gastric gavage daily, 12 weeks
Method: This example illustrates the use of low dose MMF in the treatment of a rabbit model of atherogenesis.
Study Design: Studies are done in 30 male New Zealand White (NZW) rabbits weighing 1.0-1.5 kg at the beginning of the experiment. After obtaining baseline blood samples, rabbits are fed ad libitum a 1% cholesterol diet for 12 weeks. This diet is prepared by dissolving cholesterol (Sigma, St. Louis, Mo.) in 100% ethanol at a temperature of 60° C., mixing this solution with standard rabbit chow (Purina), and allowing the complete evaporation of the ethanol.
The rabbits are divided into three groups and treated as follows: (1) CHOL+MMF (extra-low) group (n=10) receives by gastric gavage 5 mg/kg of MMF in 0.4 ml of water; (2) CHOL+MMF (ultra-low) group (n=10) receives by gastric gavage 1 mg/kg of MMF in 0.4 ml of water; and (3) CHOL group (n=10) receives by the same route daily 0.4 ml of water. […] The MMF and vehicle are given daily throughout the 12 experimental weeks.
Blood samples for determination of plasma cholesterol and triglyceride are taken every 2 weeks. […]
Determination of aortic cholesterol content: Lipids are isolated from the aortic segments as described by Folch et al., 1957, J Biol Chem. […]:497-509. […] Cholesterol is determined in the lipid extract by the method of Zlatikis et al., 1953, J Lab Clin Med. 1:486-492. […]

[5] = cited from earlier work
rabbits = settings: 30 mg/kg/day; cited from earlier work
[6] = high-dose (100 mg/kg/day) in chow

Row | average serum mycophenolic acid (MPA) level ([1]; high-dose group (MMF 100 mg/kg/day in chow)) | average serum mycophenolic acid (MPA) level ([1]; low-dose group (MMF 15 mg/kg/day in chow)) | SMILES | reduction of atherosclerosis (AS) (male Ldlr−/− mice [2]; [6]) | percentage of aortic sinus occluded by plaque (male Ldlr−/− mice [2]; [6]) | reduction of atherosclerosis (AS) (male Ldlr−/− mice [2]; low-dose 15 mg/kg/day in chow) | percentage of aortic sinus occluded by plaque (male Ldlr−/− mice [2]; low-dose 15 mg/kg/day in chow) | serum phospholipid (PPL) levels (male Ldlr−/− mice [3]; high-dose (100 mg/kg/day)) | serum triglyceride (Tgs) levels (male Ldlr−/− mice [3]; high-dose (100 mg/kg/day)) | serum phospholipid (PPL) levels (male Ldlr−/− mice [3]; low-dose 15 mg/kg/day) | serum triglyceride (Tgs) levels (male Ldlr−/− mice [3]; low-dose 15 mg/kg/day) | effect on HDL levels (male Ldlr−/− mice [3]; male Ldlr−/− mice, same groups as FIG. 1) | size and severity of the atherosclerotic lesion (intima/media ratio, aortic cholesterol content), expected [4] | solubility in water [5] | effect on atherogenic potential of a high-cholesterol diet (rabbits)
1 | 3.65 ± 0.3 mg/L | 1.16 ± 0.09 mg/L | COc1c(C)c2c(c(O)c1C/C=C(\C)CCC(=O)O)C(=O)OC2 [MPA, mycophenolic acid] |  |  |  |  |  |  |  |  |  |  |  | 
2 |  |  | COc1c(C)c2c(c(O)c1C/C=C(\C)CCC(=O)OCCN1CCOCC1)C(=O)OC2 [mycophenolate mofetil, morpholinoethyl E-6-(1,3-dihydro-4-hydroxy-6-methoxy-7-methyl-3-oxo-5-isobenzofuranyl)-4-methyl-4-hexenoate] | 61% | 6.2% | 31% | 11 % of the sinus | 696+115 mg/dL | 452+80 mg/dL | 964+87 mg/dL | 994+149 mg/dL | does not appear to affect HDL levels | significantly reduced | insoluble in water | ameliorated the atherogenic potential of a high-cholesterol diet
